What follows are compounds tested against T1, HCV NS3/4A protease complex, BMS strain (UniProt P27958, C1454S/C1711G, species not given) (assay: FRET peptide assay to monitor HCV NS3/4A proteolytic activity (BMS strain)). Conditions: read-out: IC50 Range; HCV NS3/4A enzyme assay; class symbols.
T1 construct: other: HCV NS3/4A enzyme assay; class symbols; numeric values; fused on or other part: three-lysine solubilising tail at the C-terminus of NS4A; purified on Ni-NTA from the pET21b vector (His tag implied)
Type: biochemical, HCV genotype 1a
From the text: HCV NS3 protease complexes, derived from the BMS strain, H77 strain or J4L6S strain, were generated, as described below. These purified recombinant proteins were generated for use in a homogeneous assay (see below) to provide an indication of how effective compounds of the present disclosure would be in inhibiting HCV NS3 proteolytic activity.
Serum from an HCV-infected patient was obtained from Dr. T. Wright, San Francisco Hospital. An engineered full-length cDNA (compliment deoxyribonucleic acid) template of the HCV genome (BMS strain) was constructed from DNA fragments obtained by reverse transcription-PCR (RT-PCR) of serum RNA (ribonucleic acid) and using primers selected on the basis of homology between other genotype 1a strains. From the determination of the entire genome sequence, a genotype 1a was assigned to the HCV isolate according to the classification of Simmonds et al. (See P Simmonds, K A Rose, S Graham, S W Chan, F McOmish, B C Dow, E A Follett, P L Yap and H Marsden, J. Clin. Microbiol., 31(6), 1493-1503 (1993)). […] The infectious clones, H77 (1a genotype) and J4L6S (1b genotype) were obtained from R. Purcell (NIH) and the sequences are published in Genbank (AAB67036, see Yanagi, M., Purcell, R. H., Emerson, S. U. and Buldi, J. Proc. Natl. Acad. Sci. U.S.A. 94(16),8738-8743 (1997); AF054247, see Yanagi, M., St Claire, M., Shapiro, M., Emerson, S. U., Purcell, R. H. and Bukh, J, Virology 244 (1), 161-172. (1998)).
NS3/4A protease complex-containing fractions were pooled and loaded on a desalting column Superdex-S200 pre-equilibrated with buffer D (25 mM HEPES, pH 7.5, 20% glycerol, 300 mM NaCl, 0.2% TritonX-100, 10 mM βMB). Sample was loaded at a flow rate of 1 mL/min. NS3/4A protease complex-containing fractions were pooled and concentrated to approximately 0.5 mg/ml. The purity of the NS3/4A protease complexes, derived from the BMS, H77 and J4L6S strains, were judged to be greater than 90% by SDS-PAGE and mass spectrometry analyses. The enzyme was stored at −80° C., thawed on ice and diluted prior to use in assay buffer.
The purpose of this in vitro assay was to measure the inhibition of HCV NS3 protease complexes, derived from the BMS strain, H77 strain or J4L6S strain, as described above, by compounds of the present disclosure. This assay provides an indication of how effective compounds of the present disclosure would be in inhibiting HCV NS3 proteolytic activity.
In order to monitor HCV NS3/4A protease activity, an NS3/4A peptide substrate was used. The substrate was RET S1 (Resonance Energy Transfer Depsipeptide Substrate; AnaSpec, Inc. cat #22991)(FRET peptide), described by Taliani et al. in Anal. Biochem. 240(2):60-67 (1996). The sequence of this peptide is loosely based on the NS4A/NS4B natural cleavage site for the HCV NS3 protease except there is an ester linkage rather than an amide bond at the cleavage site. The peptide also contains a fluorescence donor, EDANS, near one end of the peptide and an acceptor, DABCYL, near the other end. The fluorescence of the peptide is quenched by […] resonance energy transfer (RET) between the donor and the acceptor, but as the NS3 protease cleaves the peptide the products are released from RET quenching and the fluorescence of the donor becomes apparent.
The peptide substrate was incubated with one of the three recombinant NS3/4A protease complexes, in the absence or presence of a compound of the present disclosure. The inhibitory effects of a compound were determined by monitoring the formation of fluorescent reaction product in real time using a Cytofluor Series 4000.
Assay buffer: 50 mM HEPES, pH 7.5; 0.15 M NaCl; 0.1% Triton; 15% Glycerol; 10 mM βME. Substrate: 2 μM final concentration (from a 2 mM stock solution in DMSO stored at −20° C.). HCV NS3/4A protease type 1a (1b), 2-3 nM final concentration (from a 5 μM stock solution in 25 mM HEPES, pH 7.5, 20% glycerol, 300 mM NaCl, 0.2% Triton-X100, 10 mM βME). […]
For C=C[C@@H]1C[C@]1(NC(=O)[C@@H]1C[C@@H](Oc2ncc(OC)c3ccc(Cl)cc23)CN1C(=O)[C@@H](Nc1nc(-c2cc(C(F)(F)F)ccc2Cl)cs1)C(C)(C)C)C(=O)NS(=O)(=O)C1CC1 [Example 69], the IC50 was 1 to 20 nM. Compound C=C[C@@H]1C[C@]1(NC(=O)[C@@H]1C[C@@H](Oc2ncc(OC)c3ccc(Cl)cc23)CN1C(=O)[C@@H](Nc1nc(-c2ccc(Oc3ccccc3)cc2)cs1)C(C)(C)C)C(=O)NS(=O)(=O)C1CC1 [Example 91] has an IC50 of 1 to 20 nM. Work on C=C[C@@H]1C[C@]1(NC(=O)[C@@H]1C[C@@H](Oc2ncc(OC)c3ccc(Cl)cc23)CN1C(=O)[C@@H](Nc1nc(-c2ccc(F)cc2F)c(C)s1)C(C)(C)C)C(=O)NS(=O)(=O)C1CC1 [Example 82] yielded an IC50 of 1 to 20 nM. C=C[C@@H]1C[C@]1(NC(=O)[C@@H]1C[C@@H](Oc2ncc(OC)c3ccc(Cl)cc23)CN1C(=O)[C@@H](Nc1nc(-c2cc(-c3ccc(Cl)cc3)no2)cs1)C(C)(C)C)C(=O)NS(=O)(=O)C1CC1 [Example 88] gave an IC50 of 1 to 20 nM. C=C[C@@H]1C[C@]1(NC(=O)[C@@H]1C[C@@H](Oc2ncc(OC)c3ccc(Cl)cc23)CN1C(=O)[C@@H](Nc1nc(-c2nc3ccccc3s2)cs1)C(C)(C)C)C(=O)NS(=O)(=O)C1CC1 [Example 96] showed an IC50 of 1 to 20 nM. Work on C=C[C@@H]1C[C@]1(NC(=O)[C@@H]1C[C@@H](Oc2ncc(OC)c3ccc(Cl)cc23)CN1C(=O)[C@@H](Nc1nc(-c2sc3ccccc3c2C)cs1)C(C)(C)C)C(=O)NS(=O)(=O)C1CC1 [Example 84] yielded an IC50 of 1 to 20 nM. C=C[C@@H]1C[C@]1(NC(=O)[C@@H]1C[C@@H](Oc2ccc(OC)c3ccc(Cl)cc23)CN1C(=O)[C@@H](Nc1nc(-c2ccc(C(F)(F)F)cc2F)cs1)C(C)(C)C)C(=O)NS(=O)(=O)C1CC1 [Example 73] gave an IC50 of 1 to 20 nM. With C=C[C@@H]1C[C@]1(NC(=O)[C@@H]1C[C@@H](Oc2ncc(OC)c3ccc(Cl)cc23)CN1C(=O)[C@@H](Nc1nc(-c2ccc(OCC)cc2)cs1)C(C)(C)C)C(=O)NS(=O)(=O)C1CC1 [Example 65] the IC50 was 1 to 20 nM. Work on C=C[C@@H]1C[C@]1(NC(=O)[C@@H]1C[C@@H](Oc2ncc(OC)c3ccc(Cl)cc23)CN1C(=O)[C@@H](Nc1nc(-c2ccc(C)c(C)c2)cs1)C(C)(C)C)C(=O)NS(=O)(=O)C1CC1 [Example 63] yielded an IC50 of 1 to 20 nM. With C=C[C@@H]1C[C@]1(NC(=O)[C@@H]1C[C@@H](Oc2ncc(OC)c3ccc(Cl)cc23)CN1C(=O)[C@@H](Nc1nc(-c2cccc(C(F)(F)F)c2)cs1)C(C)(C)C)C(=O)NS(=O)(=O)C1CC1 [Example 94] the IC50 was 1 to 20 nM. For C=C[C@@H]1C[C@]1(NC(=O)[C@@H]1C[C@@H](Oc2ncc(OC)c3ccc(Cl)cc23)CN1C(=O)[C@@H](Nc1nc(-c2cc3ccccc3o2)cs1)C(C)(C)C)C(=O)NS(=O)(=O)C1CC1 [Example 87], the IC50 was 1 to 20 nM. C=C[C@@H]1C[C@]1(NC(=O)[C@@H]1C[C@@H](Oc2ncc(OC)c3ccc(Cl)cc23)CN1C(=O)[C@@H](Nc1nc(-c2sccc2Cl)cs1)C(C)(C)C)C(=O)NS(=O)(=O)C1CC1 [Example 90] showed an IC50 of 1 to 20 nM. With C=C[C@@H]1C[C@]1(NC(=O)[C@@H]1C[C@@H](Oc2ncc(OC)c3ccc(Cl)cc23)CN1C(=O)[C@@H](Nc1nc(-c2ccc(S(C)(=O)=O)cc2)cs1)C(C)(C)C)C(=O)NS(=O)(=O)C1CC1 [Example 89] the IC50 was 1 to 20 nM. C=C[C@@H]1C[C@]1(NC(=O)[C@@H]1C[C@@H](Oc2ncc(OC)c3ccc(Cl)cc23)CN1C(=O)[C@@H](Nc1nc(-c2ccc(OC)c(OC)c2)cs1)C(C)(C)C)C(=O)NS(=O)(=O)C1CC1 [Example 77] showed an IC50 of 1 to 20 nM. Work on C=C[C@@H]1C[C@]1(NC(=O)[C@@H]1C[C@@H](Oc2ncc(OC)c3ccc(Cl)cc23)CN1C(=O)[C@@H](Nc1nc(-c2ccc(O)cc2)cs1)C(C)(C)C)C(=O)NS(=O)(=O)C1CC1 [Example 60] yielded an IC50 of 1 to 20 nM. C=C[C@@H]1C[C@]1(NC(=O)[C@@H]1C[C@@H](Oc2ncc(OC)c3ccc(Cl)cc23)CN1C(=O)[C@@H](Nc1nc(-c2cc3cc(Cl)ccc3o2)cs1)C(C)(C)C)C(=O)NS(=O)(=O)C1CC1 [Example 62] gave an IC50 of 1 to 20 nM. C=C[C@@H]1C[C@]1(NC(=O)[C@@H]1C[C@@H](Oc2ncc(OC)c3ccc(Cl)cc23)CN1C(=O)[C@@H](Nc1nc(-c2cccc(F)c2F)cs1)C(C)(C)C)C(=O)NS(=O)(=O)C1CC1 [Example 80] showed an IC50 of 1 to 20 nM. C=C[C@@H]1C[C@]1(NC(=O)[C@@H]1C[C@@H](Oc2ncc(OC)c3ccc(Cl)cc23)CN1C(=O)[C@@H](Nc1nc(-c2cccc(C(F)(F)F)c2F)cs1)C(C)(C)C)C(=O)NS(=O)(=O)C1CC1 [Example 72] was tested, and the IC50 was 1 to 20 nM. C=C[C@@H]1C[C@]1(NC(=O)[C@@H]1C[C@@H](Oc2ncc(OC)c3ccc(Cl)cc23)CN1C(=O)[C@@H](Nc1nc(-c2ccccc2OC(F)(F)F)cs1)C(C)(C)C)C(=O)NS(=O)(=O)C1CC1 [Example 67] was tested, and the IC50 was 20 to 200 nM. With C=C[C@@H]1C[C@]1(NC(=O)[C@@H]1C[C@@H](Oc2ncc(OC)c3ccc(Cl)cc23)CN1C(=O)[C@@H](Nc1nc(-c2c(F)cccc2F)cs1)C(C)(C)C)C(=O)NS(=O)(=O)C1CC1 [Example 83] the IC50 was 1 to 20 nM. Work on C=C[C@@H]1C[C@]1(NC(=O)[C@@H]1C[C@@H](Oc2ncc(OC)c3ccc(Cl)cc23)CN1C(=O)[C@@H](Nc1nc(-c2cc(F)ccc2F)cs1)C(C)(C)C)C(=O)NS(=O)(=O)C1CC1 [Example 61] yielded an IC50 of 1 to 20 nM. Compound C=C[C@@H]1C[C@]1(NC(=O)[C@@H]1C[C@@H](Oc2ncc(OC)c3ccc(Cl)cc23)CN1C(=O)[C@@H](Nc1nc(-c2cc(Cl)ccc2Cl)cs1)C(C)(C)C)C(=O)NS(=O)(=O)C1CC1 [Example 76] has an IC50 of 1 to 20 nM. Compound C=C[C@@H]1C[C@]1(NC(=O)[C@@H]1C[C@@H](Oc2ncc(OC)c3ccc(Cl)cc23)CN1C(=O)[C@@H](Nc1nc(-c2cc(F)c(F)c(F)c2)cs1)C(C)(C)C)C(=O)NS(=O)(=O)C1CC1 [Example 79] has an IC50 of 1 to 20 nM. Compound C=C[C@@H]1C[C@]1(NC(=O)[C@@H]1C[C@@H](Oc2ncc(OC)c3ccc(Cl)cc23)CN1C(=O)[C@@H](Nc1nc(-c2ccc(C(F)(F)F)c(F)c2)cs1)C(C)(C)C)C(=O)NS(=O)(=O)C1CC1 [Example 75] has an IC50 of 1 to 20 nM.

Same assay, conditions: read-out: IC50 Range; HCV NS3/4A enzyme assay; numeric values
C=C[C@@H]1C[C@]1(NC(=O)[C@@H]1C[C@@H](Oc2ncc(OC)c3ccc(Cl)cc23)CN1C(=O)[C@@H](Nc1nc(-c2cc(-c3ccc(Cl)cc3Cl)no2)cs1)C(C)(C)C)C(=O)NS(=O)(=O)C1CC1 [Example 86] showed an IC50 of 2 nM. C=C[C@@H]1C[C@]1(NC(=O)[C@@H]1C[C@@H](Oc2ncc(OC)c3ccc(Cl)cc23)CN1C(=O)[C@@H](Nc1nc(-c2ccccc2C(F)(F)F)cs1)C(C)(C)C)C(=O)NS(=O)(=O)C1CC1 [Example 95] gave an IC50 of 17 nM. C=C[C@@H]1C[C@]1(NC(=O)[C@@H]1C[C@@H](Oc2ncc(OC)c3ccc(Cl)cc23)CN1C(=O)C(Nc1ccc(-c2ccccc2)c(OC)c1)C(C)(C)C)C(=O)NS(=O)(=O)C1CC1 (single isomer, unassigned) [Example 18B] was tested, and the IC50 was 2500 nM. In the case of C=C[C@@H]1C[C@]1(NC(=O)[C@@H]1C[C@@H](Oc2ncc(OC)c3ccc(Cl)cc23)CN1C(=O)[C@@H](Nc1nc(-c2ccc(C(F)(F)F)cc2C(F)(F)F)cs1)C(C)(C)C)C(=O)NS(=O)(=O)C1CC1 [Example 70], the IC50 is reported as 89 nM.

From patent US8163921B2, “Hepatitis C virus inhibitors” (Bristol-Myers Squibb Company, priority 2008, dated 2012)
